Reference: ChEMBL document CHEMBL1130678, “Thio-sugars. IV: Design and synthesis of S-linked fucoside analogs as a new class of alpha-L-fucosidase inhibitors” (Bioorg Med Chem Lett, 1998)

Target: T1, Tissue alpha-L-fucosidase (Homo sapiens, UniProt P04066)
T1 sequence (P04066 whole entry): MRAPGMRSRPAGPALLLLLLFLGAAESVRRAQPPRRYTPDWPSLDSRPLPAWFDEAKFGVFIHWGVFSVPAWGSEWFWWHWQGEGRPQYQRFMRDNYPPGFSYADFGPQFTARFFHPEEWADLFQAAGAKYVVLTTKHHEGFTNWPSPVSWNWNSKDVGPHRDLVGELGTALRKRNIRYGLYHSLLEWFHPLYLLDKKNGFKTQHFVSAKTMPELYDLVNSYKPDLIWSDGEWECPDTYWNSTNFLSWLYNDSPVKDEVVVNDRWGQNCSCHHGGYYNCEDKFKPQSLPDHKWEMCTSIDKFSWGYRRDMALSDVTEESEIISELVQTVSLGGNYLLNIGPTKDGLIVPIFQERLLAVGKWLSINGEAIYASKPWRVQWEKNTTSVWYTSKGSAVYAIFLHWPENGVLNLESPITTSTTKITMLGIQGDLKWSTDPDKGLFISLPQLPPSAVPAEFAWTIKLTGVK
Experiment: Inhibitory activity against alpha-L-fucosidase in human placenta at PH of 6.5; Mixed Inhibition type

- Ki: 3.9 µM
Compound: CC(=O)NCSC1OC(C)C(O)C(O)C1O (stereo unspecified)
